From article PMC10865825, “Sugar-binding and split domain combinations in repeats-in-toxin adhesins from Vibrio cholerae and Aeromonas veronii mediate cell-surface recognition and hemolytic activities” (mBio, 2024)

Molecular target: T1, AvSBD-UKD (sugar-binding domain and split Ig-like domain of the A. veronii RTX adhesin, WP_103422706.1)
T1 construct: AvSBD-UKD, 40 kDa ortholog construct (WP_103422706.1), spanning SBD and UKD
Test: isothermal titration calorimetry ([…]°C, one-site model, N = […])
Set-up: species or system Aeromonas veronii

Structure (SMILES): C[C@@H]1OC(O)[C@@H](O)[C@H](O)[C@@H]1O (stereo partly drawn) [L-fucose]
- Kd: 15 µM
